Our source for the melting point, IC50 and inhibition values is patent US20010056184A1, “Pipecolinic acid derivatives, method of manufacturing the same and therapeutic agents containing these compounds” (priority 2000, published 2001).

The structures appear in SMILES notation. Some results are limits rather than exact numbers.

The target of data set [1] is T1, human fibroblasts derived MMP-1 (type I collagenase) (Homo sapiens, UniProt P03956).
T1 construct: human fibroblasts derived MMP-1 (Yagai Co. Ltd.) as enzyme; purchased Yagai Co. Ltd; host or cells: human fibroblasts
T1 sequence (P03956 100-469): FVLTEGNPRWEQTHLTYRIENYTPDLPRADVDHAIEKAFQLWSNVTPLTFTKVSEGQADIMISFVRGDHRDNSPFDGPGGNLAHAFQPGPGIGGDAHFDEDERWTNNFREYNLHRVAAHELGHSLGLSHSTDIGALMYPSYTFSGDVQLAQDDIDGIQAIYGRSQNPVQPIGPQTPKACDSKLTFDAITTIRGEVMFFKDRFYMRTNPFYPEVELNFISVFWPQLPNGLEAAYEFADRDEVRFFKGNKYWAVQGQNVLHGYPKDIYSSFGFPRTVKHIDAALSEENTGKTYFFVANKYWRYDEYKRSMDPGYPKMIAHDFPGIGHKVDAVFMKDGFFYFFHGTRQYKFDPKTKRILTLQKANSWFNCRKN
As to the kind of experiment: MMP-1 (type I collagenase) inhibitory activities, fluorogenic substrate enzyme assay. Format: biochemical. As to conditions: for IC50: 37° C., 4 h, substrate 10 μM; for inhibition at 10 µM: at 10^−5M, NE means no effect, read-out: MMP-1 inhibition percent. Here is the method:
Examination 1: MMP-1 (type I collagenase) inhibitory activities.
Inhibitory activities of MMP-1 (type I collagenase) activities were estimated by enzyme assay using human fibroblasts derived MMP-1 (Yagai Co. Ltd.) as enzyme, and MOCAc-Pro-Leu-Gly-Leu-A2pr(Dnp)-Ala-Arg-NH2 (Peptide Research Center, 3163-v) as substrate. Thus, MMP-1 (0.01 U/ml), test compound (10^−10˜10^−5 M), and the substrate (10 μM) were incubated in 50 mM Tris-HCl buffer (pH 7.4) containing 0.2M NaCl, 10 mM CaCl2, 0.02% NaN3, and 0.05% Brij 35 at 37° C. for 4 h. The reaction was stopped by adding of 4 volumes of sodium acetate buffer (pH 4.0), and the degradation of substrate was calculated by measurement with a fluorescence intensity (λ ex 328 nm, λ em 393 nm). Inhibition of degradation of substrate in the presence of compound was determined by comparison with the degradation percent of substrate in the absence of compound, and concentration of 50% inhibition (IC50 value) was calculated.

The target of data set [2] is T2, MMP-2 (gelatinase A) (Homo sapiens, UniProt P08253).
T2 construct: made in house; host or cells: COS-1 cells (secreted into culture medium)
T2 sequence (P08253 110-660): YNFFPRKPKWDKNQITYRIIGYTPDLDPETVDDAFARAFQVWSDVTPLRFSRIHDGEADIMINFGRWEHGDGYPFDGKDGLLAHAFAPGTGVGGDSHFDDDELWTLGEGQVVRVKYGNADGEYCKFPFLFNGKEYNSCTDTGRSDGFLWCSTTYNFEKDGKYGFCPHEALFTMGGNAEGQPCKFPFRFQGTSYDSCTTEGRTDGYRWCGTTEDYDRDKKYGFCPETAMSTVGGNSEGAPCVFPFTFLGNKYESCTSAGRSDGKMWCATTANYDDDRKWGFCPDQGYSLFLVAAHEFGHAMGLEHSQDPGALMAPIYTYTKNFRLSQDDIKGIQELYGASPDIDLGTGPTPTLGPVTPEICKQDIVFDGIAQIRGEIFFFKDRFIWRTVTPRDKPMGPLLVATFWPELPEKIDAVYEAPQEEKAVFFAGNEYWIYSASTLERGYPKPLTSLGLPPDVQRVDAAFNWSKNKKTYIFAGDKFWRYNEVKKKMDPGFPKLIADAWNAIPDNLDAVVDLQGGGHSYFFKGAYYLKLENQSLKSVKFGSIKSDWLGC
Put plainly: MMP-2 (gelatinase A) inhibitory activities, fluorogenic substrate enzyme assay. Format: biochemical. As to conditions: 42° C., 2 h, substrate 10 μM. Here is the method:
(§1) Examination 2: MMP-2 (gelatinase A) and MMP-9 (gelatinase B) inhibitory activities.
(§2) Pro MMP-2 was obtained from culture medium separated from human pro-MMP-2 cDNA tranfected COS-1 cells. Pro MMP-2 activated by 1 mM (4-aminophenyl) mercury acetic acid and MMP-9, derived human fibrosarcome (Yagai Co. Ltd.), were used as enzyme respectively. Inhibition of both enzyme activities were estimated by enzyme assay using MOCAc-Pro-Leu-Gly-Leu-A2pr(Dnp)-Ala-Arg-NH2 (Peptide Research Center, 3163-v) as substrate. Thus, MMP-2 or MMP-9 (0.01 U/ml), test compound (several concentrations), and the substrate (10 μM) were incubated in 50 mM Tris - HCl buffer (pH 7.4) containing 0.2M NaCl, 10 mM CaCl2, 0.02% NaN3, and 0.05% Brij 35 at 42° C. for 2 h (MMP-2), 3 h (MMP-9) respectively. Inhibition of degradation of substrate in the presence of compound was determined by comparison with the degradation of substrate in the absence of compound, and concentration of 50% inhibition (IC50 value) was calculated.

The target of data set [3] is T3, MMP-9 (gelatinase B) (Homo sapiens, UniProt P14780).
T3 construct: MMP-9, derived human fibrosarcome (Yagai Co. Ltd.), were used as enzyme respectively; purchased Yagai Co. Ltd; host or cells: human fibrosarcoma
T3 sequence (P14780 94-707): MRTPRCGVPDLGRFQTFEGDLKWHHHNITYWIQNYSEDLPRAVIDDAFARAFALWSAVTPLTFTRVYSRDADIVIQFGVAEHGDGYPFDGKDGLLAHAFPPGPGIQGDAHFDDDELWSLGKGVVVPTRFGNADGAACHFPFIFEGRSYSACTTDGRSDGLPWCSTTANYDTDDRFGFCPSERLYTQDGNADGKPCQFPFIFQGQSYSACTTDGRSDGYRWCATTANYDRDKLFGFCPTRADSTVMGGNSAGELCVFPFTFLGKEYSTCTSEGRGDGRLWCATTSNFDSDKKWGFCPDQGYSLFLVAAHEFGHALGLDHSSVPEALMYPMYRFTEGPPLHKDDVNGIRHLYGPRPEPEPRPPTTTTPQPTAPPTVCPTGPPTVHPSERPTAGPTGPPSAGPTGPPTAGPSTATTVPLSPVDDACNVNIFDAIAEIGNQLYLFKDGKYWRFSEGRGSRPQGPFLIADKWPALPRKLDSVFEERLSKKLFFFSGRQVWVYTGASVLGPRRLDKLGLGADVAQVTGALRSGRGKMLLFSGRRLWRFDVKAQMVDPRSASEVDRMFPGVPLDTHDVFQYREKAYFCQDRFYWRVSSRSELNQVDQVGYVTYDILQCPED
As to the kind of experiment: MMP-9 (gelatinase B) inhibitory activities, fluorogenic substrate enzyme assay. Format: biochemical. Conditions: for IC50: 42° C., 3 h, substrate 10 μM. How it is done: as §1, §2

Data set [4] concerns the target T4, Δ MT1-MMP (Δ MMP-14) (Homo sapiens, UniProt P50281).
T4 construct: ProMT1-MMP cDNA encoded extracellular domain of pro Δ MT1-MMP was tranfected E. coli BL21DE3; made in house; host or cells: E. coli BL21DE3 (inclusion bodies, 8M urea, ion exchange)
Put plainly: Δ MT1-MMP (Δ MMP-14) inhibitory activities, fluorogenic substrate enzyme assay. The format is biochemical. As to conditions: 37° C., 30 min, substrate 10 μM; read-out: ΔMMP-14 IC50. From the text:
Examination 3: Δ MT1-MMP (Δ MMP-14) inhibitory activities.
ProMT1-MMP cDNA encoded extracellular domain of pro Δ MT1-MMP was tranfected E. coli BL21DE3, pro Δ MT1-MMP collected as inclusion body was solved using 8M urea, and it was pulified by ion exchenge column chlomatography. Inhibition of enzyme activities were estimated by enzyme assay using activated Δ MT1-MMP, obtained from activation of pro Δ MT1-MMP by 10 μ/ml tripsine, and MOCAc-Pro-Leu-Gly-Leu-A2pr(Dnp)-Ala-Arg-NH2 (Peptide Research Center, 3163-v) as substrate. Thus, Δ MT1-MMP, test compound (several concentrations), and the substrate (10 μM) were incubated in 50 mM Tris - HCl buffer (pH 7.4) containing 0.2M NaCl, 10 mM CaCl2, 0.02% NaN3, 0.05% Brij 35, and 10 μM leuipeputine at 37° C. for 30 min. The reaction was stopped by adding of 4 volumes of sodium acetate buffer (pH 4.0), and the degradation of substrate was calculated by measurement with a fluorescence intensity (λ ex 328 nm, λ em 393 nm). Inhibition of degradation of substrate in the presence of compound was determined by comparison with the degradation of substrate in the absence of compound, and concentration of 50% inhibition (IC50 value) was calculated.

`COc1ccc(C(=O)N[C@@H]2CCN(S(=O)(=O)c3ccc(-c4ccc(OC)cc4)cc3)[C@@H](C(=O)O)C2)cc1` [Compound 4, (2R, 4R)-2-Carboxy-4-(4-methoxybenzoylamino)-1-[4-(4-methoxyphenyl)benzenesulfonyl)-piperidine] registered a melting point greater than 250 °C.

In the case of `CCN[C@@H]1CCN(S(=O)(=O)c2ccc(-c3ccc(OC)cc3)cc2)[C@@H](C(=O)O)C1` [Compound 27, (2R, 4R)-2-Carboxy-4-ethylamino-1-[4-(4-methoxyphenyl)benzenesulfonyl]-piperidine], the melting point was greater than 250 °C.

Take `COc1ccc(C(=O)N[C@@H]2CCN(S(=O)(=O)c3cccs3)[C@@H](C(=O)NO)C2)cc1` [Compound 50, (2R, 4R)-2-Hydroxyaminocarbonyl-4-(4-methoxybenzoylamino)-1-(2-thiophenesulfonyl)-piperidine]: the IC50 in data set [1] came out at 8400 nM; in data set [2], 73 nM; in data set [3] it was 44 nM; in data set [4] it was 35 nM.

As to `COc1ccc(-c2ccc(S(=O)(=O)N3CC[C@@H](NC(C)=O)C[C@@H]3C(=O)NO)cc2)cc1` [Compound 64, (2R, 4R)-4-Acetylamino-2-hydroxyaminocarbonyl-1-[4-(4-methoxyphenyl)benzenesulfonyl]-piperidine], the IC50 in data set [1] was found to be 650 nM; in data set [2] it was 0.91 nM; in data set [3], 0.72 nM; in data set [4], 8.9 nM.

Turning to `CC(C)CCC(=O)N[C@@H]1CCN(S(=O)(=O)c2ccc(-c3ccc([N+](=O)[O-])cc3)cc2)[C@@H](C(=O)NO)C1` [Compound 67, (2R, 4R)-2-Hydroxyaminocarbonyl-4-(4-methylpentanoylamino)-1-[4-(4-nitrophenyl)benzenesulfonyl]-piperidine], the IC50 in data set [1] came to 1200 nM; in data set [2], 22 nM; in data set [3], 36 nM; in data set [4], 1500 nM.

For `COc1ccc(C(=O)N[C@@H]2CCN(S(=O)(=O)c3ccc(-c4ccc(OC)cc4)cc3)[C@@H](C(=O)NO)C2)cc1` [Compound 48, (2R, 4R)-2-Hydroxyaminocarbonyl-4-(4-methoxybenzoylamino)-1-[4-(4-methoxyphenyl)benzenesulfonyl]-piperidine], the inhibition at 10 µM in data set [1] came out at 35.5%. For the same compound, the figures for the IC50 in data set [2], in data set [3] and in data set [4] were 0.55 nM, 0.4 nM and 310 nM, respectively.

Turning to `COc1ccc(-c2ccc(S(=O)(=O)N3CC[C@@H](NCCCC(C)C)C[C@@H]3C(=O)NO)cc2)cc1` [Compound 61, (2R, 4R)-2-Hydroxyaminocarbonyl-1-[4-(4-methoxyphenyl)benzenesulfonyl]-4-(4-methylpentylamino)-piperidine], the inhibition at 10 µM in data set [1] amounted to 44.6%. In addition, the IC50 amounted to 2.7 nM in data set [2], 19 nM in data set [3] and 49 nM in data set [4].

As to `CC(C)CCC(=O)N[C@@H]1CCN(S(=O)(=O)c2ccc(O)cc2)[C@@H](C(=O)NO)C1` [Compound 63], the IC50 was 510 nM in data set [1], 28 nM in data set [2], 31 nM in data set [3] and 17 nM in data set [4].

`COc1ccc(CN[C@@H]2CCN(S(=O)(=O)c3ccc(-c4ccc(OC)cc4)cc3)[C@@H](C(=O)NO)C2)cc1` [Compound 62, (2R, 4R)-2-Hydroxyaminocarbonyl-4-(4-methoxybenzylamino)-1-[4-(4-methoxyphenyl)benzenesulfonyl]-piperidine]: the IC50 was found to be 870 nM in data set [1], 0.93 nM in data set [2], 3.2 nM in data set [3] and 45 nM in data set [4].

As to `CC(C)CCC(=O)N[C@@H]1CCN(S(=O)(=O)c2ccc(-c3ccc(Cl)cc3)cc2)[C@@H](C(=O)NO)C1` [Compound 71, (2R, 4R)-1-[4-(4-Chlorohenyl)benzenesulfonyl]-2-hydroxyaminocarbonyl-4-(4-methylpentanoylamino)-piperidine], the IC50 in data set [1] was 640 nM; in data set [2] it was 19 nM; in data set [3], 3.4 nM; in data set [4], 290 nM.

Turning to `COc1ccc(S(=O)(=O)N2CC[C@H](NC(=O)CCC(C)C)C[C@H]2C(=O)NO)cc1` [Compound 79, (2S, 4S)-2-Hydroxyaminocarbonyl-1-(4-methoxybenzenesulfonyl)-4-(4-methylpentanoylamino)-piperidine], the inhibition at 10 µM amounted to 0% in data set [1] and 23.3% in data set [3] (at 10^−5M, read-out: MMP-9 inhibition percent). Moreover, the IC50 stood at 7600 nM in data set [2] and 5000 nM in data set [4].

As a reminder, the melting point is the temperature of the solid-liquid transition. One may read the IC50 as the midpoint of a concentration-inhibition curve. As usually defined, the inhibition is the drop in the measured response relative to a control, in per cent.
